Legend:
[1] = biological target: T1, Peroxisome proliferator-activated receptor gamma (Homo sapiens, UniProt P37231); test: Agonist activity at human PPARgamma expressed in mouse NIH/3T3 cells assessed as receptor activation after 16 hrs by luciferase based reporter gene assay; format: functional, cell-based, NIH3T3
T1 sequence (P37231 whole entry): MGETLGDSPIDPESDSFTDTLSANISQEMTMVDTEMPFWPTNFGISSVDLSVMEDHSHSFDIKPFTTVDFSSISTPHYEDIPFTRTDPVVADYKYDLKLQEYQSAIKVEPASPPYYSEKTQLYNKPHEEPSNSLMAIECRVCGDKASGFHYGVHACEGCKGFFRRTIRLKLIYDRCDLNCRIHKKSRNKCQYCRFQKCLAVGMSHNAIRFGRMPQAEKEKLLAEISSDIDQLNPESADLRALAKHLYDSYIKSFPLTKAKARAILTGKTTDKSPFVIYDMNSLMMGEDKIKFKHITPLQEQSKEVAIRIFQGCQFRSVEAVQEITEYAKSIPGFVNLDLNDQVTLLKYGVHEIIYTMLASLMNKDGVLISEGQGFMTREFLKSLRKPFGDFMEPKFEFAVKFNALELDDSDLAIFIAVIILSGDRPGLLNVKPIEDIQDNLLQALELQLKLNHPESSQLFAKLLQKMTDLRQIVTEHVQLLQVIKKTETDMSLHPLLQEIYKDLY

[2] = biological target: T2, Peroxisome proliferator-activated receptor gamma (Homo sapiens) (UniProt P37231); test: Agonist activity at human PPARgamma expressed in mouse NIH/3T3 cells assessed as receptor activation at 100 uM after 16 hrs by luciferase based reporter gene assay relative to control; format: functional, cell-based; settings: NIH3T3
T2 sequence (whole entry): T1 sequence (P37231 whole entry)

| EC50 [1] | fold change (FC) [2] | SMILES |
| --- | --- | --- |
| 16.7 µM | 13.5 | C/C(=C/CC/C(C)=C/CC/C(C)=C/Cc1occc1C)C(=O)O [SAURUFURAN A] |
| > 100 µM |  | C/C(=C\CC/C(C)=C/Cc1occc1C)CC/C=C(\C)C(=O)O [SAURUFURAN B] |
|  | 15 | CC1(COc2ccc(CC3SC(=O)NC3=O)cc2)CCCCC1 (centres undefined) |
